Experimental data published in ChEMBL document CHEMBL1159339, “Oxygenated analogues of gorgosterol and ergosterol from the soft coral Capnella lacertiliensis” (2003).

What was measured:
[1] = biological target: Tyrosine-protein kinase Lck (Homo sapiens) (UniProt P06239); test: Inhibition of p56 LCK at 200 ug/ml; design: scale not given: the % may be the effect or the level left
Microbotryum violaceum [2] = test: Antimicrobial activity against Microbotryum violaceum at 10 ug; format: functional; conditions: read-out: IZ
[3] = tested on: Aspergillus pseudoglaucus; test: Antimicrobial activity against Eurotium repens at 10 ug; format: functional; conditions: read-out: IZ
Microbotryum violaceum [4] = test: Antimicrobial activity against Microbotryum violaceum at 25 ug; format: functional; conditions: read-out: IZ
Microbotryum violaceum [5] = test: Antimicrobial activity against Microbotryum violaceum at 20 ug; format: functional; conditions: read-out: IZ
[6] = tested on: Aspergillus pseudoglaucus; test: Antimicrobial activity against Eurotium repens at 20 ug; format: functional; conditions: read-out: IZ

Tyrosine-protein kinase Lck (Homo sapiens), sequence (P06239 2-509 limits assumed): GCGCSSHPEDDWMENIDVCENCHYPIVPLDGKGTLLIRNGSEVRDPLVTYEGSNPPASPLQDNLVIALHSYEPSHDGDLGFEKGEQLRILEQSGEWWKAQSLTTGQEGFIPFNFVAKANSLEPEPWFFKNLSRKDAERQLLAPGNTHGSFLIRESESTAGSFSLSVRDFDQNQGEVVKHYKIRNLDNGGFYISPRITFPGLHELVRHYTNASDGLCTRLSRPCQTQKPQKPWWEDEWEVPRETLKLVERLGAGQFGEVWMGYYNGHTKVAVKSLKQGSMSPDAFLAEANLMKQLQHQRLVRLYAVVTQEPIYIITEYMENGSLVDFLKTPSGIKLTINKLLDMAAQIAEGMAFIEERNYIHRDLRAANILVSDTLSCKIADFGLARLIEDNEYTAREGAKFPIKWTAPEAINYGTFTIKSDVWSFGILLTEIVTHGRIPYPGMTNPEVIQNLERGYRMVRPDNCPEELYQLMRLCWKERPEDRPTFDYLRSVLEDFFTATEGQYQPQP

Structure (SMILES)	Activity [1] [%]	zone of inhibition at 10 µg/disc (Microbotryum violaceum [2]) [mm]	other results
CC(=O)O[C@@H]1C[C@H]2[C@@H](CC=C3C[C@@H](O)CC[C@@]32C)[C@@H]2CC[C@H]([C@H](C)CC(O)[C@H](C)C(C)C)[C@@]12C (some centres undefined)	42	3	–
CC(=O)O[C@@H]1C[C@H]2[C@@H]([C@H](O)C=C3C[C@@H](O)CC[C@@]32CO)[C@@H]2CC[C@H]([C@H](C)[C@H]3C[C@]3(C)[C@H](C)C(C)C)[C@@]12C	–	2	–
CC(=O)O[C@@H]1[C@H]2[C@@H](CC=C3C[C@@H](O)CC[C@@]32C)[C@@H]2CC(O)[C@H]([C@H](C)CC[C@H](C)C(C)C)[C@@]2(C)[C@@H]1O (some centres undefined)	47	3	zone of inhibition at 10 µg/disc [3]: 2 mm
CC(=O)O[C@@H]1[C@H](O)[C@H]2[C@@H](CC=C3C[C@@H](O)CC[C@@]32C)[C@@H]2CC(O)[C@H]([C@H](C)CC[C@H](C)C(C)C)[C@@]12C (some centres undefined)	–	–	zone of inhibition at 25 µg/disc (Microbotryum violaceum [4]): 1 mm
CC(=O)O[C@@H]1C[C@H]2[C@@H]([C@H](O)C=C3C[C@@H](O)CC[C@@]32C)[C@@H]2CC[C@H]([C@H](C)[C@H]3C[C@]3(C)[C@H](C)C(C)C)[C@@]12C	–	–	zone of inhibition at 20 µg/disc (Microbotryum violaceum [5]): 1 mm; zone of inhibition at 20 µg/disc [6]: 2 mm
